From ChEMBL document CHEMBL3885881, “DrugMatrix”

Organism: Rattus norvegicus
Assay: DrugMatrix - Regimen: Daily Repeat
Assay type: toxicity, organism-based, Sprague-Dawley
Design: regimen Daily Repeat, gender Male, age 6-8 weeks
Conditions: in vivo, po, 50 mg/kg, route oral GAVAGE, dose level Low, vehicle 100 % WATER; for ABSOLUTE BASOPHIL / ABSOLUTE EOSINOPHIL / ABSOLUTE LYMPHOCYTE / ABSOLUTE MONOCYTE / ABSOLUTE SEGMENTED NEUTROPHIL / BASOPHIL / EOSINOPHIL / ERYTHROCYTE COUNT / HEMATOCRIT / HEMOGLOBIN / LEUKOCYTE COUNT / LYMPHOCYTE / MEAN CORPUSCULAR HEMOGLOBIN / MEAN CORPUSCULAR HEMOGLOBIN CONCENTRATION / MEAN CORPUSCULAR VOLUME / MONOCYTE / NEUTROPHIL / NUCLEATED RED BLOOD CELLS / PLATELET COUNT: tissue Blood; for ALANINE AMINOTRANSFERASE / ALBUMIN / ALKALINE PHOSPHATASE / ASPARTATE AMINOTRANSFERASE / BLOOD UREA NITROGEN / CARBON DIOXIDE / CHLORIDE / CHOLESTEROL / CREATINE PHOSPHOKINASE / CREATININE / GLUCOSE / LACTATE DEHYDROGENASE / LIPASE / PHOSPHORUS / POTASSIUM / SODIUM / TOTAL BILIRUBIN / TOTAL PROTEIN / URIC ACID: tissue Plasma

Compound: CC[C@H]1OC(=O)[C@H](C)[C@@H](O[C@H]2C[C@@](C)(OC)[C@@H](O)[C@H](C)O2)[C@H](C)[C@@H](O[C@@H]2O[C@H](C)C[C@H](N(C)C)[C@H]2O)[C@](C)(O)C[C@@H](C)CN(C)[C@H](C)[C@@H](O)[C@]1(C)O [AZITHROMYCIN]
- ABSOLUTE BASOPHIL (72 h, time 3 day): 0 CELLS/uL
- ABSOLUTE EOSINOPHIL (72 h, time 3 day): 0 CELLS/uL
- ABSOLUTE LYMPHOCYTE (72 h, time 3 day): 14976.33 CELLS/uL
- ABSOLUTE MONOCYTE (72 h, time 3 day): 50 CELLS/uL
- ABSOLUTE SEGMENTED NEUTROPHIL (72 h, time 3 day): 1373.67 CELLS/uL
- BASOPHIL (72 h, time 3 day): 0%
- EOSINOPHIL (72 h, time 3 day): 0%
- ERYTHROCYTE COUNT (72 h, time 3 day): 5.24 x10E6/uL
- HEMATOCRIT (72 h, time 3 day): 34.53%
- HEMOGLOBIN (72 h, time 3 day): 13.33 G/DL
- LEUKOCYTE COUNT (72 h, time 3 day): 16.4 x10E3/uL
- LYMPHOCYTE (72 h, time 3 day): 91.33%
- MEAN CORPUSCULAR HEMOGLOBIN (72 h, time 3 day): 25.5 pg
- MEAN CORPUSCULAR HEMOGLOBIN CONCENTRATION (72 h, time 3 day): 38.67 G/DL
- MEAN CORPUSCULAR VOLUME (72 h, time 3 day): 65.87 fL
- MONOCYTE (72 h, time 3 day): 0.33%
- NEUTROPHIL (72 h, time 3 day): 8.33%
- NUCLEATED RED BLOOD CELLS (72 h, time 3 day): 0.33 /100WBC
- PLATELET COUNT (72 h, time 3 day): 1013.33 x10E3/uL
- ALANINE AMINOTRANSFERASE (72 h, time 3 day): 52.67 u/L
- ALBUMIN (72 h, time 3 day): 3.97 G/DL
- ALKALINE PHOSPHATASE (72 h, time 3 day): 324 u/L
- ASPARTATE AMINOTRANSFERASE (72 h, time 3 day): 77 u/L
- BLOOD UREA NITROGEN (72 h, time 3 day): 13 mg/dL
- CARBON DIOXIDE (72 h, time 3 day): 30 mmol/L
- CHLORIDE (72 h, time 3 day): 98.33 MEQ/L
- CHOLESTEROL (72 h, time 3 day): 80.67 mg/dL
- CREATINE PHOSPHOKINASE (72 h, time 3 day): 196 u/L
- CREATININE (72 h, time 3 day): 0.11 mg/dL
- GLUCOSE (72 h, time 3 day): 165 mg/dL
- LACTATE DEHYDROGENASE (72 h, time 3 day): 154 u/L
- LIPASE (72 h, time 3 day): 9.33 u/L
- PHOSPHORUS (72 h, time 3 day): 11.37 mg/dL
- POTASSIUM (72 h, time 3 day): 6.42 MEQ/L
- SODIUM (72 h, time 3 day): 143.1 MEQ/L
- TOTAL BILIRUBIN (72 h, time 3 day): 0.2 mg/dL
- TOTAL PROTEIN (72 h, time 3 day): 5.87 G/DL
- URIC ACID (72 h, time 3 day): 0.83 mg/dL
- ABSOLUTE BASOPHIL (120 h, time 5 day): 0 CELLS/uL
- ABSOLUTE EOSINOPHIL (120 h, time 5 day): 59.33 CELLS/uL
- ABSOLUTE LYMPHOCYTE (120 h, time 5 day): 8956 CELLS/uL
- ABSOLUTE MONOCYTE (120 h, time 5 day): 157 CELLS/uL
- ABSOLUTE SEGMENTED NEUTROPHIL (120 h, time 5 day): 561 CELLS/uL
- BASOPHIL (120 h, time 5 day): 0%
- EOSINOPHIL (120 h, time 5 day): 0.67%
- ERYTHROCYTE COUNT (120 h, time 5 day): 5.03 x10E6/uL
- HEMATOCRIT (120 h, time 5 day): 33.47%
- HEMOGLOBIN (120 h, time 5 day): 12.9 G/DL
- LEUKOCYTE COUNT (120 h, time 5 day): 9.73 x10E3/uL
- LYMPHOCYTE (120 h, time 5 day): 91.67%
- MEAN CORPUSCULAR HEMOGLOBIN (120 h, time 5 day): 25.73 pg
- MEAN CORPUSCULAR HEMOGLOBIN CONCENTRATION (120 h, time 5 day): 38.57 G/DL
- MEAN CORPUSCULAR VOLUME (120 h, time 5 day): 66.63 fL
- MONOCYTE (120 h, time 5 day): 1.67%
- NEUTROPHIL (120 h, time 5 day): 6%
- NUCLEATED RED BLOOD CELLS (120 h, time 5 day): 0 /100WBC
- PLATELET COUNT (120 h, time 5 day): 1159 x10E3/uL
- ALANINE AMINOTRANSFERASE (120 h, time 5 day): 55.33 u/L
- ALBUMIN (120 h, time 5 day): 3.87 G/DL
- ALKALINE PHOSPHATASE (120 h, time 5 day): 346 u/L
- ASPARTATE AMINOTRANSFERASE (120 h, time 5 day): 85.33 u/L
- BLOOD UREA NITROGEN (120 h, time 5 day): 13.33 mg/dL
- CARBON DIOXIDE (120 h, time 5 day): 33.67 mmol/L
- CHLORIDE (120 h, time 5 day): 98.33 MEQ/L
- CHOLESTEROL (120 h, time 5 day): 66.33 mg/dL
- CREATINE PHOSPHOKINASE (120 h, time 5 day): 375.33 u/L
- CREATININE (120 h, time 5 day): 0.18 mg/dL
- GLUCOSE (120 h, time 5 day): 143.67 mg/dL
- LACTATE DEHYDROGENASE (120 h, time 5 day): 176.67 u/L
- LIPASE (120 h, time 5 day): 12.33 u/L
- PHOSPHORUS (120 h, time 5 day): 11.3 mg/dL
- POTASSIUM (120 h, time 5 day): 5.91 MEQ/L
- SODIUM (120 h, time 5 day): 142.67 MEQ/L
- TOTAL BILIRUBIN (120 h, time 5 day): 0.13 mg/dL
- TOTAL PROTEIN (120 h, time 5 day): 5.9 G/DL
- URIC ACID (120 h, time 5 day): 0.37 mg/dL
